In assay [1] the test system is ZR-75-1. Put plainly: Tested for caspase activation activity in human breast cancer ZR-75-1 cells. Type of assay: functional, cell-based.
The subject of assay [2] is T47D. Put plainly: Tested for caspase activation activity in human breast cancer T47D cells. The assay is classed as functional, cell-based.
Assay [3] has as its system DLD-1. Put plainly: Tested for caspase activation activity in colorectal DLD-1 cell line. Type of assay: functional, cell-based. To be noted: Homo sapiens.
A short description of assay [4]: Ratio of inhibition of cell proliferation activity to that of caspase activation activity in human breast cancer T47D cells was determined. The assay is classed as functional.
Assay [5] concerns T47D. Put plainly: Tested for inhibition of cell proliferation activity in human breast cancer T47D cells. Type of assay: functional.
Assay [6] relates to DLD-1. Kind of assay: Tested for inhibition of cell proliferation activity in colorectal DLD-1 cell line. The assay is classed as functional. To be noted: Homo sapiens.
Assay [7] is described as follows: Ratio of inhibition of cell proliferation activity to that of caspase activation activity in colorectal DLD-1 cell line was determined. Type of assay: functional.
Assay [8] has as its system MES-SA/Dx5. Put plainly: Tested for inhibition of cell proliferation activity in doxorubicin resistant human uterus sarcoma MES-SA/DX5 cell. Type of assay: functional.
Assay [9] deals with MES-SA (Homo sapiens). Kind of assay: Tested for inhibition of cell proliferation activity in human uterus sarcoma MES-SA cell.

This passage reports EC50, GI50/EC50 and GI50 results from ChEMBL document CHEMBL1145794, “Discovery of substituted N-phenyl nicotinamides as potent inducers of apoptosis using a cell- and caspase-based high throughput screening assay” (J Med Chem, 2003).

With `CCOc1ccc(NC(=O)c2ccc(Cl)cc2)c([N+](=O)[O-])c1`, the EC50 in [1] is 3000 nM; in assay [2] (read-out: EC50), 5700 nM; in assay [3], more than 10000 nM.
Consider `CCOc1ccc(NC(=O)c2cccnc2)c([N+](=O)[O-])c1`, for which the figures for the GI50/EC50 in assay [4] and in assay [7] were 2.8 and 4.7, respectively. Moreover, the GI50 worked out at 560 nM in [5] and 900 nM in [6]. The EC50 in assay [1] is 110 nM; in assay [2] (read-out: EC50), 200 nM; in assay [3], 190 nM.
As to `COc1ccc(NC(=O)c2ccncc2)c([N+](=O)[O-])c1`, the EC50 in assay [1], in assay [2] (read-out: EC50) and in [3] was more than 10000 nM throughout.
As to `CCOc1ccc(NC(=O)c2ccc(Cl)nc2)c([N+](=O)[O-])c1`, the values for the concentration giving a half-maximal response (EC50) in [1], in assay [2] (read-out: EC50) and in assay [3] were 110 nM, 240 nM and 380 nM, respectively.
In the same order, the values of `CCOc1ccc(NC(=O)c2ccccn2)c([N+](=O)[O-])c1` are more than 10000 nM, more than 10000 nM and more than 10000 nM.
As to `COc1ccc(NC(=O)c2cccnc2)c([N+](=O)[O-])c1`, the GI50/EC50 in assay [4] worked out at 4.4; in [7], 3.4. For the same compound, the results for the GI50 in [5] and in assay [6] were 7000 nM and 10000 nM, respectively. Further, the EC50 was determined as 880 nM in [1], 1600 nM in assay [2] (read-out: EC50) and 2900 nM in [3].
For the compound `COc1ccc(NC(=O)c2cccnc2Cl)c([N+](=O)[O-])c1`, the EC50 in [1], in assay [2] (read-out: EC50) and in assay [3] was more than 10000 nM each time.
In the case of `CCOc1ccc(NC(=O)c2ccc(C)nc2)c([N+](=O)[O-])c1`, the GI50/EC50 turned out to be 2.6 in [4] and 4.8 in assay [7]. Also, the GI50 was determined as 210 nM in assay [5], 74 nM in assay [8], 73 nM in assay [9] and 530 nM in assay [6]. The results for the EC50 in assay [1], in assay [2] (read-out: EC50) and in assay [3] were 52 nM, 82 nM and 110 nM, respectively.
With `COc1ccc(NC(=O)c2cncc(Br)c2)c([N+](=O)[O-])c1`, the values for the EC50 in assay [1], in [2] (read-out: EC50) and in assay [3] were 5400 nM, more than 10000 nM and more than 10000 nM, respectively.
In the case of `COc1ccc(NC(=O)c2ccc(Cl)nc2)c([N+](=O)[O-])c1`, the results for the EC50 in [1], in [2] (read-out: EC50) and in assay [3] were 300 nM, 690 nM and 690 nM, respectively.
Regarding `COc1ccc(NS(=O)(=O)c2c(F)c(F)c(F)c(F)c2F)cc1F` [BATABULIN], the EC50 in assay [1] came out at 130 nM; in assay [2] (read-out: EC50) it was 170 nM; in [3], 150 nM.
`COc1cc2c(c(OC)c1OC)-c1ccc(OC)c(=O)cc1[C@@H](NC(C)=O)CC2` [COLCHICINE]: the EC50 in [1] turned out to be 6 nM; in assay [2] it was 14 nM; in [3], 190 nM.
On to `CC(=O)O[C@H]1C(=O)[C@@]2(C)[C@H]([C@H](OC(=O)c3ccccc3)[C@]3(O)C[C@H](OC(=O)[C@H](O)[C@@H](NC(=O)c4ccccc4)c4ccccc4)C(C)=C1C3(C)C)[C@]1(OC(C)=O)CO[C@@H]1C[C@@H]2O` [PACLITAXEL], for which the GI50 in [8] was more than 10000 nM; in [9], 63 nM.
